Measurements reported in US20110130346A1, “PEPTIDE CONJUGATES FOR DELVERY OF BIOLOGICALLY ACTIVE COMPOUNDS” (ISIS INNOVATION LIMITED, priority 2008, published 2011).

Key:
[1] = system: exon and intron 23 of the dystrophin gene; experiment: Example 3: intramuscular injection of glucose-formulated AOs, dystrophin-positive myofibres by immunohistochemistry; assay type: in vivo; conditions: intramuscular into TA, 8 week old mdx mice, two weeks
Method: Here we study a novel delivery glucose formulation by evaluating it via local intramuscular injection into the mdx mouse tibialis anterior (TA) muscle. Initial experiments were performed in 6-8 week old mdx mice (referred to as 8 weeks) by treatment with a single dose of 5 ug of 2′OMePS AO formulated in 5% glucose. In a parallel control study, age-matched control mdx mice were treated with the same AO dose formulated in standard saline buffer.
For intramuscular studies the TA muscle of each experimental mdx mouse was injected with a 40 μl dose of PNA and PNA-peptide conjugates with saline at a final concentration of 125 μg/ml, and the contralateral muscle was injected with saline. […]
Sections of 8 μm were cut from at least two-thirds of the muscle length of TA, quadriceps, gastrocnemius, biceps, abdominal wall and diaphragm muscles and cardiac muscle at 100 μm intervals. […] The maximum number of dystrophin-positive fibres in one section was counted using the Zeiss AxioVision fluorescence microscope. […] Polyclonal antibodies were detected by goat-anti-rabbit IgGs Alexa Fluro 594 (Molecular Probe, UK). […] Polyclonal antibodies were detected by goat-anti-rabbit IgGs Alexa 594 and the monoclonal antibodies by goat-anti-mouse IgGs Alexa 594 (Molecular Probe, UK). […]

[2] = system: exon and intron 23 of the dystrophin gene; experiment: Example 2: intramuscular injection, Western blot of dystrophin; assay type: in vivo, mdx mice; conditions: 5 ug intramuscular
Method: For intramuscular studies the TA muscle of each experimental mdx mouse was injected with a […] dose of PNA and PNA-peptide conjugates with saline at a final concentration of 125 μg/ml. For systemic intravenous injections, Various amount of PNA or PNA-peptide conjugates in 80 μl saline buffer were injected into tail vein of mdx mice at the final dose of 25 mg/kg, 50 mg/kg and 100 mg/kg, respectively. The animals were killed at various time points after injection by CO2 inhalation and tissues were removed and snap-frozen in liquid nitrogen-cooled isopentane and stored at −80° C.
The collected sections were placed in a 1.5 ml polypropylene eppendorf tube (Anachem, UK) on dry ice. The tissue sections were lysed with 150 μl protein extraction buffer containing 125 mmol/l Tris-HCl (pH=6.8), 10% sodium dodecyl sulphate, 2 mol/l urea, 20% glycerol, and 5% 2-mercaptoethanol. […] The supernatant was collected and the protein concentration was quantified by Bradford assay (Sigma, UK). […] The bound primary antibody was detected by horseradish peroxidise-conjugated rabbit anti-mouse IgGs and the ECL Western Blotting Analysis system (Amersham Pharmacia Biosciences, UK). The intensity of the bands obtained from treated mdx muscles was measured by Image J software; the quantification is based on band intensity and area, and is compared with that from normal muscles of C57BL6 mice.

[3] = system: exon and intron 23 of the dystrophin gene; experiment: Example 2: systemic intravenous injection, RT-PCR of exon skipping; assay type: in vivo, mdx mice; conditions: intravenous 25, 50 and 100 mg/kg; gastrocnemius and abdominal muscles, not other muscles
Text: (§1) To develop AO splice correction therapy for DMD it is essential to establish effective systemic dystrophin correction since DMD is a systemic disease affecting all skeletal muscles, including the diaphragm, and cardiac muscle. Other AO chemistries, including 2′OMePS and PMO chemistries, have been reported to yield variable dystrophin splice correction following intravenous systemic delivery in mdx mice, with high systemic doses being required to detect appreciable efficacy. Here we wished to evaluate the potential of neutral PNA AOs for systemic splice correction in body-wide muscles, and initially evaluated a dose-response using three intravenous single PNA doses of 25, 50 and 100 mg/kg administered to 6 week old mdx mice via tail vein injections. Dystrophin expression was studied by immunostaining of muscle tissue sections from various peripheral muscles (including quadriceps, gastrocnemius, biceps, abdominal wall, diaphragm) and heart muscle three weeks after AO administration (FIG. 7A). […] Measures of phenotypic correction, including serum biochemical measurements of creatine kinase and AST/ALT enzyme levels were negative (FIGS. 7C and D).
Total RNA was extracted from tested muscle tissues with Trizol (Invitrogen, UK) and 200 ng of RNA template was used for 20 μl RT-PCR with OneStep RT-PCR kit (Qiagen, UK). […]

[4] = Example 2: serum creatine kinase and AST/ALT after systemic injection; assay type: in vivo, mdx mice; conditions: intravenous 25, 50 and 100 mg/kg
Text: as §1
Serum and plasma were taken from the mouse jugular vein immediately after the killing with CO2 inhalation. […]

5′-ggccaaaccteggcttacct-3′ [PNA]
dystrophin-positive myofibres, 5% glucose formulation compared with saline formulation [1]: significant improvement | level of dystrophin protein restored (Western blot) ([2]; 8 week time point): about 20 % of normal levels | dystrophin protein (Western blot) ([2]; 20 weeks post administration): considerably reduced levels | exon skipping (RT-PCR) [3]: only very level of exon skipping | phenotypic correction: serum creatine kinase and AST/ALT enzyme levels [4]: negative
